Legend:
[1] = target: T1, dihydropyrimidine dehydrogenase (DPD) (Homo sapiens, UniProt Q12882); details: in vivo; cited from earlier work
T1 construct: greater than 80% of an injected dose of 5-FU rapidly degraded by a single pathway
T1 sequence (Q12882 4-1025): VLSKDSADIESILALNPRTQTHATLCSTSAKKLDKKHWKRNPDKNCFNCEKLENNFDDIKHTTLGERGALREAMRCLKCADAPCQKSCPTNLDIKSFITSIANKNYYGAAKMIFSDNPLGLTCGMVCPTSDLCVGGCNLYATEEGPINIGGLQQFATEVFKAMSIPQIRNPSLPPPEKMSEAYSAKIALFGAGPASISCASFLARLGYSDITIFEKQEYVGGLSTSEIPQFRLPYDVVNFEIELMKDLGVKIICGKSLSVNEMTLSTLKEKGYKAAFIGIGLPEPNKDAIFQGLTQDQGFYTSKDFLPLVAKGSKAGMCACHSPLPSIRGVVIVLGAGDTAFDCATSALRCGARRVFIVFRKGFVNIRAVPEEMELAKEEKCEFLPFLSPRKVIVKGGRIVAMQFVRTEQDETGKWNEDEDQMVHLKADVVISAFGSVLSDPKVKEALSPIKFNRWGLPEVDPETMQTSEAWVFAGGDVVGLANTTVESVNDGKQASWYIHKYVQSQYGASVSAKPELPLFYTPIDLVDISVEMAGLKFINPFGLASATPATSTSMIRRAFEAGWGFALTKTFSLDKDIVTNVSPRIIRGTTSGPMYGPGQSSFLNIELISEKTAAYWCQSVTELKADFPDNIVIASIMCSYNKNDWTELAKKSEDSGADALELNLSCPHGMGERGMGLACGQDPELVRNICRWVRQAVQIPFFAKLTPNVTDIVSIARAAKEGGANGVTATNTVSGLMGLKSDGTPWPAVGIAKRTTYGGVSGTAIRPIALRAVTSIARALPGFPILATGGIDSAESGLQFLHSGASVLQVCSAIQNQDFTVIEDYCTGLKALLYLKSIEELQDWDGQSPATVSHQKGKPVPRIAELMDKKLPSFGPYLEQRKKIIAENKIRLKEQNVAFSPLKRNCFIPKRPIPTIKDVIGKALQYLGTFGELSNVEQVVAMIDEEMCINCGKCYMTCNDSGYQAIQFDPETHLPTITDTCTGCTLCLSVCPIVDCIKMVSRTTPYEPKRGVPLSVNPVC

[2] = target: T2, human dihydrouracil dehydrogenase (DPD) (Homo sapiens, UniProt Q12882); details: Naguib et al. 1985; cited from earlier work
T2 sequence (Q12882 4-1025): T1 sequence (Q12882 4-1025)

OPRT = target: T3, OPRT (Homo sapiens, UniProt P11172); details: neutral pH; cited from earlier work
T3 sequence (P11172 1-480): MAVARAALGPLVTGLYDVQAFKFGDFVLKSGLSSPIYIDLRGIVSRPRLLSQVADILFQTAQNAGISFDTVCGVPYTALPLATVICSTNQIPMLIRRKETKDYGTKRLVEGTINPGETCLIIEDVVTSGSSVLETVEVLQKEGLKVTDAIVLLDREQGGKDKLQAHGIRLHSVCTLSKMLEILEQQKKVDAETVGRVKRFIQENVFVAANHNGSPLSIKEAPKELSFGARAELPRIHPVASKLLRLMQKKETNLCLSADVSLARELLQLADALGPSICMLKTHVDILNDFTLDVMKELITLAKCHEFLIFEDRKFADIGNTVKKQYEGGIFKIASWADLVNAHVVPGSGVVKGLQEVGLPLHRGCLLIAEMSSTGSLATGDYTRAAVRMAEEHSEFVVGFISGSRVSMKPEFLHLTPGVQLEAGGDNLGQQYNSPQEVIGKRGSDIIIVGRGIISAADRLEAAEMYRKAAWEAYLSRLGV

[3] = system: patients (Hand and Foot syndrome); assay: Ten patients treated one to six months, prevention of Hand and Foot syndrome; type: in vivo, human
Description: The calculations are based on topical application of 1 g of cream to the hands and 1 g to the feet twice a day, totaling 4 g. […] A volume of distribution (Vd) of 50 L is assumed.

[4] = system: Marker tumor (metastatic breast cancer); assay: Marker tumor size in the metastatic breast cancer patient on Xeloda and Taxotere; type: in vivo, human; details: seen prior to course 5, on lower dose Xeloda (1000 mg/m^2)
Description: They had refused mastectomy and had previously failed adriamycin and cytoxan, weekly taxol, and weekly navelbine. […] FIGS. 3A, 3B and 3C illustrate the incidence of Hand and Foot syndrome in patients treated with Xeloda®.

[5] = system: patients (hand-foot syndrome); details: in vivo; cited from earlier work

O=c1[nH]cc(F)c(=O)[nH]1 [5-FU, 5-fluorouracil]
share of an injected dose rapidly degraded by the DPD pathway [1]: greater than 80%
substrate quality for DPD compared with uracil [2]: better substrate
OPRT preference for 5-FU over uracil (OPRT): about 50 times

O=C(O)c1cc(=O)[nH]c(=O)[nH]1 [Orotate, orotate]
Km for OPRT, lower than that of 5-FU (OPRT): ~50 fold

O=c1cc[nH]c(=O)[nH]1 [Uracil, uracil]
toxicity [3]: no reports of toxicity
prevention of Hand and Foot syndrome ([3]; 1% cream): complete efficacy

CCCCCOC(=O)Nc1nc(=O)n([C@@H]2O[C@H](C)[C@@H](O)[C@H]2O)cc1F [Xeloda, capecitabine]
Marker tumor course (remark) [4]: progression
frequency of hand-foot syndrome during treatment [5]: common
patients with Grade II-III hand foot toxicity [5]: 10-50%

From patent US9084788B2, “Compositions and methods for treating and preventing dermatoses” (Asymmetric Therapeutics, LLC, priority 2002, dated 2015)
